The values that follow come from paper PMC10620989, “Going beyond Binary: Rapid Identification of Protein–Protein Interaction Modulators Using a Multifragment Kinetic Target-Guided Synthesis Approach” (Journal of Medicinal Chemistry, 2023).

Several values for one entry are separate records, joined by “and”; a condition that tells them apart may be missing. Equal entries are not always repeated. Where two headings read alike, the source gives them in different places.

One may read the IC50 as the concentration at which inhibition is half-maximal. In general, inhibition refers to the drop in the measured response relative to a control, in per cent.

One experiment deals with GST-Bcl-XL (Homo sapiens, UniProt Q07817). Nature of the experiment: Fluorescence polarization assay, GST-Bcl-XL / fluorescein-labeled Bak BH3 peptide. Type of experiment: binding. Particulars: FP, GST-Bcl-XL and fluorescein-labeled Bak BH3 peptide; ND = not detected. For orientation: Polarisation of emitted light reports the rotation of a fluorescent probe.
GST-Bcl-XL, sequence (Q07817 whole entry): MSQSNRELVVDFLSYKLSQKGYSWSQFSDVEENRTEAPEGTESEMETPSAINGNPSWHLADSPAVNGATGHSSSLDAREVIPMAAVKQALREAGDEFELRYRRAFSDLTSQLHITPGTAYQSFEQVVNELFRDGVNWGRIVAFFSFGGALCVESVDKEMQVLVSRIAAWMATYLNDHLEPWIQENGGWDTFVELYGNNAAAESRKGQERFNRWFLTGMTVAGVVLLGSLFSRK
Experiment [1] addresses GST-tagged mouse Mcl-1-(152–309) (Mus musculus, UniProt P97287). Nature of the experiment: Fluorescence polarization competitive binding assay, GST-Mcl-1 / FITC-Bim-BH3. Further details: selectivity index: reference not given here. Particulars: for inhibition at 50 µM: compound at 50 µM.
Experiment [2] has as its target T1, Mcl-1 (Mus musculus, UniProt P97287). Nature of the experiment: Multifragment KTGS screen against Mcl-1 (5 TA x 38 SZ per well), LC-MS/MS. Particulars: multifragment KTGS, 190 combinations per well, 10 μM Mcl-1, 20 μM each fragment, pH 7.4, 37 °C, 10 h; peak area with protein / without protein.
Experiment [3] addresses T1, Mcl-1. Briefly: Binary KTGS incubation (1 TA x 1 SZ) with Mcl-1, LC-MS/MS. To be noted: binary incubation mixtures with and without Mcl-1.
The mark [4] stands for this setting: FP, GST-Mcl-1 and fluorescein-labeled Bim BH3 peptide, read-out: IC50 on Mcl-1.

T1 sequence (P97287 whole entry, the tested form may be a part): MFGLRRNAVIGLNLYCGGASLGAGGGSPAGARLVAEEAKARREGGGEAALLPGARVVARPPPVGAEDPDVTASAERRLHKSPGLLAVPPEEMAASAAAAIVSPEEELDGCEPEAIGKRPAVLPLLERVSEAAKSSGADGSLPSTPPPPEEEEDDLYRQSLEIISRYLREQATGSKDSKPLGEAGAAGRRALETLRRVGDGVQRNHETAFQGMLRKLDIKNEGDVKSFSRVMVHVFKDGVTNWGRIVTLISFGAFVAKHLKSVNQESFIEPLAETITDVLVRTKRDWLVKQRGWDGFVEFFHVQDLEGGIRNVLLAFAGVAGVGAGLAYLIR
GST-tagged mouse Mcl-1-(152–309), sequence (P97287 152-309): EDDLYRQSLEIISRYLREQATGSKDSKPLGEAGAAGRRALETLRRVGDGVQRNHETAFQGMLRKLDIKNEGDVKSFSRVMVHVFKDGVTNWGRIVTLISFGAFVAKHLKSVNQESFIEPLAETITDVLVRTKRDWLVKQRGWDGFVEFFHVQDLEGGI

As to `O=C(NS(=O)(=O)c1ccc(NCCSc2ccccc2)c([N+](=O)[O-])c1)c1ccc2c(ccn2Cc2ccc(C(F)(F)F)cc2C(F)(F)F)c1` [SZ4TA30, O=C(NS(C1=CC=C(NCCSC2=CC=CC=C2)C([N+]([O-])=O)=C1)(=O)=O)C3=CC(C=CN4CC5=CC=C(C(F)(F)F)C=C5C(F)(F)F)=C4C=C3], the 50% inhibitory concentration (IC50) was over 50 µM at GST-Bcl-XL and 26.1 µM in experiment [1] (setting [4]). In addition, the inhibition at 50 µM in experiment [1] (FP) turned out to be 80.7%. Besides, on Mcl-1 [2], the “Amplification coefficient 5TA x 38SZ” value came out at 20. Moreover, the “Amplification coefficient 1TA x 1SZ” value at Mcl-1 [3] came out at 4.

With `O=C(NS(=O)(=O)c1ccc(CN(CCSc2ccccc2)Cc2c(F)cccc2Cl)cc1)c1ccc(-c2ccccn2)cc1` [SZ15TA25, O=C(NS(C1=CC=C(CN(CCSC2=CC=CC=C2)CC3=C(F)C=CC=C3Cl)C=C1)(=O)=O)C4=CC=C(C5=NC=CC=C5)C=C4], the IC50 turned out to be 54.9 µM against GST-Bcl-XL and 15.3 µM in experiment [1] (IC50 on Mcl-1). Besides, in experiment [1] (FP), 50 µM produced 89% inhibition. Also, the “Amplification coefficient 5TA x 38SZ” value at Mcl-1 [2] came out at 15. On Mcl-1 [3], the “Amplification coefficient 1TA x 1SZ” value was 4.5.

In the case of `Cc1nc(-c2ccccc2)sc1C(=O)NS(=O)(=O)c1ccc(CN(CCSc2ccccc2)Cc2c(F)cccc2Cl)cc1` [SZ15TA3, O=C(NS(C1=CC=C(CN(CCSC2=CC=CC=C2)CC3=C(F)C=CC=C3Cl)C=C1)(=O)=O)C4=C(C)N=C(C5=CC=CC=C5)S4], the IC50 against GST-Bcl-XL amounted to 36.4 µM; in experiment [1] (IC50 on Mcl-1), 5.8 µM. Also, the inhibition at 50 µM in experiment [1] (FP) was found to be 95.9%. Further, the “Amplification coefficient 5TA x 38SZ” value at Mcl-1 [2] came out at 10. For the same compound, the “Amplification coefficient 1TA x 1SZ” value on Mcl-1 [3] was 5.

Turning to `O=C(NS(=O)(=O)c1ccc(NCCSc2ccccc2)c([N+](=O)[O-])c1)c1ccc(CCc2ccccn2)cc1` [SZ4TA17, O=C(NS(C1=CC=C(NCCSC2=CC=CC=C2)C([N+]([O-])=O)=C1)(=O)=O)C3=CC=C(CCC4=NC=CC=C4)C=C3], the IC50 against GST-Bcl-XL was 2.1 µM and 2.08 µM; in experiment [1] (setting [4]), 61 µM and 60.6 µM. Also, 50 µM produced 44.7% inhibition in experiment [1] (FP). The same compound displayed a selectivity index in experiment [1] (quotient of the IC50 toward Bcl-XL over the IC50 toward Mcl-1) of 0.03. Also, the “Amplification coefficient 5TA x 38SZ” value at Mcl-1 [2] was 8. Also, on Mcl-1 [3], the “Amplification coefficient 1TA x 1SZ” value amounted to 10.

For `Cc1noc(C)c1-c1ccc(S(=O)(=O)NC(=O)c2ccc(CN3C(=O)C(c4ccc(F)cc4F)=C(c4ccc(F)cc4F)C3=O)cc2)cc1` [SZ32TA42, O=C(NS(C1=CC=C(C2=C(C)ON=C2C)C=C1)(=O)=O)C3=CC=C(CN4C(C(C5=C(F)C=C(F)C=C5)=C(C6=CC=C(F)C=C6F)C4=O)=O)C=C3], the IC50 against GST-Bcl-XL was 43.8 µM; in experiment [1] (setting [4]), 19.1 µM. The same compound displayed an inhibition at 50 µM in experiment [1] (FP) of 91%. On Mcl-1 [2], the “Amplification coefficient 5TA x 38SZ” value came out at 10. In addition, at Mcl-1 [3], the “Amplification coefficient 1TA x 1SZ” value is given as 6.

Turning to `COc1cc(OC)cc(C(=O)NS(=O)(=O)c2ccc(CN(CCSc3ccccc3)Cc3c(F)cccc3Cl)cc2)c1` [SZ15TA5, O=C(NS(C1=CC=C(CN(CCSC2=CC=CC=C2)CC3=C(F)C=CC=C3Cl)C=C1)(=O)=O)C4=CC(OC)=CC(OC)=C4], the IC50 against GST-Bcl-XL is 53 µM; in experiment [1] (IC50 on Mcl-1) it was 13.4 µM. This compound also returned a selectivity index in experiment [1] of 4.0. Also, in experiment [1] (FP), the inhibition at 50 µM was over 99%. In addition, the “Amplification coefficient 5TA x 38SZ” value at Mcl-1 [2] was found to be 9. In addition, the “Amplification coefficient 1TA x 1SZ” value on Mcl-1 [3] is reported as 4.

For `NS(=O)(=O)c1ccc(CN(CCSc2ccccc2)Cc2ccc(S(=O)(=O)NC(=O)c3ccc4oc(-c5ccccc5)cc4c3)cc2)cc1` [SZ10TA41, O=C(NS(C1=CC=C(CN(CCSC2=CC=CC=C2)CC3=CC=C(S(=O)(N)=O)C=C3)C=C1)(=O)=O)C4=CC(C=C(C5=CC=CC=C5)O6)=C6C=C4], in experiment [1] (FP), at 50 µM the inhibition was 12.4%. Also, the “Amplification coefficient 5TA x 38SZ” value at Mcl-1 [2] was 20. The “Amplification coefficient 1TA x 1SZ” value on Mcl-1 [3] worked out at 40.

In the case of `NS(=O)(=O)c1ccc(CN(CCSc2ccccc2)Cc2ccc(S(=O)(=O)NC(=O)CC3Sc4ccccc4NC3=O)cc2)cc1` (stereo not drawn) [SZ10TA34, O=C(NS(C1=CC=C(CN(CCSC2=CC=CC=C2)CC3=CC=C(S(=O)(N)=O)C=C3)C=C1)(=O)=O)CC4SC5=CC=CC=C5NC4=O], in experiment [1] (FP), 50 µM produced 64.1% inhibition. Besides, on Mcl-1 [2], the “Amplification coefficient 5TA x 38SZ” value is reported as 7. In addition, the “Amplification coefficient 1TA x 1SZ” value at Mcl-1 [3] was found to be 6.

As to `O=C(NS(=O)(=O)c1ccc(CN(CCSc2ccccc2)Cc2ccc3c(c2)OCO3)cc1)c1ccc(OC(F)(F)F)cc1` [SZ31TA8, O=C(NS(C1=CC=C(CN(CCSC2=CC=CC=C2)CC3=CC(OCO4)=C4C=C3)C=C1)(=O)=O)C5=CC=C(OC(F)(F)F)C=C5], the IC50 in experiment [1] (setting [4]) worked out at 5.9 µM. Also, the inhibition at 50 µM in experiment [1] (FP) was over 99%. Also, the “Amplification coefficient 5TA x 38SZ” value at Mcl-1 [2] is on record as 7. In addition, the “Amplification coefficient 1TA x 1SZ” value at Mcl-1 [3] stood at 4.

Regarding `COc1cccc(CN(CCSc2ccccc2)Cc2ccc(S(=O)(=O)NC(=O)c3ccc(Cc4ccc(OC)c(OC)c4OC)cc3)cc2)c1` [SZ17TA24, O=C(NS(C1=CC=C(CN(CCSC2=CC=CC=C2)CC3=CC(OC)=CC=C3)C=C1)(=O)=O)C4=CC=C(CC5=CC=C(OC)C(OC)=C5OC)C=C4], at 50 µM the inhibition in experiment [1] (FP) was 74.1%. Also, the “Amplification coefficient 5TA x 38SZ” value on Mcl-1 [2] is 9. The “Amplification coefficient 1TA x 1SZ” value on Mcl-1 [3] stood at 5.
